# Results from PMC7606179 (Acta Pharmaceutica Sinica. B, 2020).
# Tested on: NA immobilized magnetic beads (NA from C. perfringens)
# Format: binding, Clostridium perfringens
row,Compound,Behaviour in NA-MB ligand fishing of the artificial mixture
1,COc1ccc2c3c1O[C@H]1C[C@@H](O)C=C[C@@]31CCN(C)C2 [galantamine],non-inhibitor of NA
2,COc1cc(-c2oc3cc(O)cc(O)c3c(=O)c2O)ccc1O [isorhamnetin],started to release from the enzyme when NA-MB was extracted using 50% organic solvent
3,COc1cc2c(cc1O)CC[n+]1cc3c(OC)c(OC)ccc3cc1-2 [jatrorrhizine],gradually washed out from M-S2 to M-S6
4,O=c1cc(-c2ccc(O)c(O)c2)oc2cc(O)cc(O)c12 [luteolin],specific inhibitors of NA
5,"O=c1cc(-c2ccc(O)c(O)c2)oc2cc(O[C@@H]3O[C@H](CO)[C@@H](O)[C@H](O)[C@H]3O)cc(O)c12 [Galuteolin, galuteolin]",started to release from the enzyme when NA-MB was extracted using 50% organic solvent
6,O=c1c(O)c(-c2ccc(O)c(O)c2)oc2cc(O)cc(O)c12 [Quercetin],specific inhibitors of NA
